Results taken from patent publication US10106828B2, “Cell culture medium and process for protein expression, said medium and process comprising a PAM inhibitor” (SANDOZ GMBH, priority 2010, dated 2018).

Tests used:
CHO cells [1] = experiment: Influence of PAM inhibitors on proline amide formation on a monoclonal antibody (chimeric IgG) expressed in CHO cells, CEX-CPB analysis / peptide mapping; assay type: cell-based, Chinese hamster; conditions: FIG. 1; for amount of pseudo 1K (proline amide) in CEX-CPB: monoclonal antibody (chimeric IgG), control without inhibitor app. 10%
Text: The amount of proline amide can be identified and quantified by various analytical methods, by distinguishing the amidated variant from the non-amidated one by physico-chemical differences such as charge, hydrophobicity or mass. The most common method is ion exchange chromatography, as the CEX-CPB method (cation exchange chromatography after digestion by carboxypeptidase B), exploiting the charge alteration due to proline amidation.
(§1) For antibodies, co-elution of proline amide variants with lysine variants is avoided by removal of lysine residues using carboxypeptidase B digestion prior to chromatographic separation. Additional co-elution with other basic variants, however, can result in a quantification background of several percent (e.g. 4%). Proline amide variants plus background are termed “Pseudo 1K” for eluting at the chromatographic position of the antibody variant with one C-terminal lysine residue. “Pseudo 2K” encompasses the proline variants plus background eluting at the chromatographic position of the antibody variant with two C-terminal lysine residue. The difference to the CEX method (i.e. CEX without lysine removal by CPB digestion) is indicating the amount of antibody variants with lysine residues, termed “Real 1K” and “Real 2K”. The quantification by CEX(-CPB) returns the percentage of proline amidated antibodies relative to all antibody molecules in a solution. An analytical test method which unambiguously can identify and quantify amidated proline variants is RP-HPLC (reversed-phase high-performance-liquid-chromatography) of endopeptidase (e.g. LysC, Trypsin) digested protein, so called peptide mapping, using UV (ultraviolet) or MS (mass-spec) detection. The quantification by RP-HPLC peptide mapping returns for an antibody the percentage of proline amidated heavy chains relative to all heavy chains.
“Pseudo 1K” is the variant determined by CEX-CPB where one of the two heavy chains of an antibody (IgG) has a proline amide at its C-terminus. “Pseudo 2K” is the variant determined by CEX-CPB where both heavy chains of a monoclonal antibody have a proline amide at their C-termini.
In their experiments, the inventors focused on published PAM inhibitors as potential medium components. Among the screened components are, i.e., sodium sulfite, tiopronin, captopril, EDTA, ammonium sulfite, L-histidine, D-histidine, ammonium meta thiomolybdate, L-carnosine, penicillamine, 4-phenyl-3 butenoic acid (PBA). […]
FIG. 1: Influence of PAM inhibitors on proline amide (PA) formation, quantified as ‘pseudo 1K’ in CEX-CPB analysis, on a monoclonal antibody (chimeric IgG) expressed in CHO cells. […]

CHO cells [2] = experiment: Influence of PBA on proline amide formation on an Fc-fusion protein expressed in CHO cells, quantified by peptide mapping; assay type: cell-based, Chinese hamster; conditions: for proline amide (% per heavy chain): without PBA >4%
Text: as §1
Two recombinant proteins were used to investigate the effect of PAM inhibitors on amino acid amidation/proline amid formation, i.e., a monoclonal antibody (human-mouse-chimeric IgG), and an Fc-fusion protein. CHO cells were used as expression system.
FIG. 2: Influence of PAM inhibitor PBA on proline amide formation on an Fc-fusion protein expressed in CHO cells, as quantified by peptide mapping. Supplementing the cultures of recombinant CHO cells with various concentrations of PBA up to 100 μM decreased the amount of proline amide (% per heavy chain) in a dose-dependent effect curve from app. 2% (no PBA) to app. 0.1% (100 μM PBA).
FIG. 3: Influence of PAM inhibitor PBA on proline amide formation on an Fc-fusion protein expressed in CHO cells, as quantified by peptide mapping.

With O=C(O)CC=Cc1ccccc1 [PBA, 4-phenyl-3-butenoic acid] the “amount of pseudo 1K (proline amide) in CEX-CPB” value (CHO cells [1]; 10 μM in cell culture medium) was roughly 8%, the “amount of pseudo 1K (proline amide) in CEX-CPB” value (CHO cells [1]; 100 μM in cell culture medium) was roughly 5% and the “proline amide per heavy chain, peptide mapping” value (CHO cells [1]; corresponds to 5% pseudo 1K in CEX-CPB (100 μM), monoclonal antibody) was 0-2%. For the same compound, the “effect on proline amide formation compared with other screened PAM inhibitors” value (CHO cells [1]; supplemented to the cell culture) was “strongest effect”, the “amount of proline amide (% per heavy chain)” value (CHO cells [2]; FIG. 2, 100 μM PBA, no PBA app. 2%) was roughly 0.1% and the “effect curve of proline amide decrease” value (CHO cells [2]; FIG. 2, various concentrations up to 100 μM) was “dose-dependent”. For the same compound, the “proline amide (% per heavy chain)” value (CHO cells [2]; FIG. 3, 50 μM PBA) was less than 1% and the “proline amide (% per heavy chain)” value (CHO cells [2]; FIG. 3, 100 μM PBA) was less than 0.5%.
